Where two headings read alike, the source gives them in different places.
Key:
[1] = system: rCedV-Luc; assay: microbe, parasite or virus in culture; assay type: cell-based; conditions: read-out: IC50 (95% CI)
[2] = system: rCedV-Luc; assay: microbe, parasite or virus in culture; assay type: cell-based; conditions: Cedar virus, Vero C1008, 48 h, read-out: IC50 (95% CI)
[3] = system: NiV-B; assay: microbe, parasite or virus in culture; assay type: cell-based, Nipah virus; conditions: for IC50: read-out: IC50 (95% CI)
[4] = system: HeV; assay: microbe, parasite or virus in culture; assay type: cell-based, Hendra virus; conditions: for IC50: read-out: IC50 (95% CI)
[5] = system: CedV F and G; assay type: cell-based
[6] = in vitro; conditions: human
[7] = system: HEK 293T cells
[8] = system: Vero E6 cells
[9] = system: Vero 76 cell line; conditions: African green monkey

Molecule: CCOc1ccc(C2c3[nH]c4ccccc4c3CCN2C(=O)C2CCC2)cc1 (stereo not drawn) [Compound C1, cyclobutyl(1-(4-ethoxyphenyl)-1,3,4,9-tetrahydro-2H-pyrido[3,4-b]indol-2-yl)methanone]
- IC50 ([1]; Cedar virus, HEK-293T, 48 h): 3.06 µM
- IC50 [2]: 7.82 µM
- Selectivity index (SI) [3]: > 55
- IC50 ([3]; Henipavirus nipahense, Vero 76, 48 h): 1.83 µM
- Selectivity index (SI) [4]: > 10
- IC50 ([4]; Henipavirus hendraense, Vero 76, 48 h): 9.87 µM
- Inhibition of cell-cell membrane fusion activity [5]: did not inhibit cell-cell membrane fusion activity
- CC50 [6]: > 100 µM

Molecule: COc1ccc(Nc2nc(-c3nnn(-c4ccc(Br)cc4F)c3C)ns2)cc1 [Z, 3-(1-(4-bromo-2-fluorophenyl)-5-methyl-1H-1,2,3-triazol-4-yl)-N-(4-methoxyphenyl)-1,2,4-thiadiazol-5-amine]
- IC50 ([1]; Cedar virus, HEK-293T, 48 h): 0.13 µM
- IC50 [2]: 0.41 µM
- CC50 [6]: > 100 µM

Molecule: (1-(6-(cyclopropylamino)pyrimidin-4-yl)piperidin-4-yl)-N-(2-(thiophen-2-yl)ethyl)propenamide [Compound A3]
- IC50 [1]: ~0.3 µM
- CC50 [7]: > 100 µM
- CC50 [8]: > 100 µM

Molecule: cyclobutyl(1-(4-ethoxyphenyl)-1,3,4,9-tetrahydro-2H-pyrido[3,4-b]indol-2-yl)methanone [Compound F1]
- IC50 [3]: 4.15 µM
- IC50 [4]: 19.6 µM
- Inhibition of cell-cell membrane fusion activity [5]: did not inhibit cell-cell membrane fusion activity
- Cytotoxicity (in words) [7]: mild toxicity
- CC50 ([7]; human): 85.8 µM
- CC50 ([8]; African green monkey): > 100 µM
- CC50 [9]: > 100 µM

Reference: paper PMC8631057 (Antiviral research, 2021)
